{"source": "patent US12564193B2", "about": "“Isoxazoline-substituted benzamide derivative, and preparation method therefor and use thereof” (SHANDONG UNITED PESTICIDE INDUSTRY CO., LTD., priority 2020, dated 2026)", "assay_type_in_all_cases": "in vivo", "key": {"Mythimna separata": {"system": "Mythimna separata", "test": "Insecticidal activity, spray on pre-infested radish plants: Mythimna separata", "details": "for Fatality rate on Mythimna separata (%): Table 3; for pest or weed control at 0.1 ppm / pest or weed control at 1 ppm / pest or weed control at 10 ppm: Mythimna separata, 144 h, read-out: fatality rate on Mythimna separata", "protocol": "(§1) For determination of insecticidal activity, the test method was as follows: a test solution with a desired concentration was prepared by dissolving a test compound sample in a suitable solvent (the kind of solvent was such as acetone, methanol, DMSO, etc., and was selected according to its dissolving ability for the sample). The test cell was composed of a small open container with 12-15 day old radish plants inside. The plants were pre-infested by placing 30-40 pests located on one leaf cut from the cultivated plant on one leaf of the test plant (leaf cutting method). As the leaves dehydrated, the pests moved on the test plants. After the pre-infesting, the soil of the test cells was covered with a layer of sand.\n(§2) The test method was as follows: the test was repeated for three times, and after spraying the formulated test compound, each test unit was allowed to dry for 1 hour, and then a black mesh cover was placed at the top. The test units were kept in a growth chamber at 25° C. and 70% relative humidity for 6 days. The mortality (fatality rate) of the insects was then visually assessed for each test unit, and the fatality rate was calculated as follows: […]"}, "Chilo suppressalis": {"system": "Chilo suppressalis", "test": "Insecticidal activity, spray on pre-infested radish plants: Chilo suppressalis", "details": "for Fatality rate on Chilo suppressalis (%): Table 3; for pest or weed control at 0.1 ppm / pest or weed control at 1 ppm / pest or weed control at 10 ppm: Chilo suppressalis, 144 h, read-out: fatality rate on Chilo suppressalis", "protocol": "as §1, §2"}, "Spodoptera litura": {"system": "Spodoptera litura", "test": "Insecticidal activity, spray on pre-infested radish plants: Spodoptera litura", "details": "144 h, read-out: fatality rate on Spodoptera litura", "protocol": "as §1, §2"}, "Tetranychus cinnabarinus": {"system": "Tetranychus cinnabarinus", "test": "Acaricidal activity, slide immersion of female adult mites: Tetranychus cinnabarinus", "details": "read-out: fatality rate on Tetranychus cinnabarinus", "protocol": "The test method was as follows: a test solution with a desired concentration was prepared by dissolving a test compound sample in a suitable solvent (the kind of solvent was such as acetone, methanol, DMSO, etc., and was selected according to its dissolving ability for the sample). A double-sided adhesive tape was cut into 2-3 cm long pieces, the pieces were attached to one end of a microscope slide, paper pieces on the adhesive tape were removed using tweezers, female adult mites which were consistent in size, bright in body color and lively in action were selected using a zero-size brush pen, the backs of the female adult mites were adhered to the double-sided adhesive tape (note: the adhesion should not cover mite feet, mite whiskers and mouthparts), with 4 rows of mites adhered to each piece and 10 heads of the mites adhered to each row.\nOne end of the glass slide with the mites was immersed into a drug liquid, with slightly shaking for 5 seconds, and then the slide was taken out. The excess drug liquid around the mite body and is surroundings is quickly sucked off using absorbent paper. The slide was placed in the biochemical incubator described above, and the results were checked by using binoculars after 24 hours. The mites were slightly touched by using a brush pen, the mites with immobility in feet were considered to be dead, and the fatality rate was calculated. The fatality rate was calculated as follows: […]"}, "Cnaphalocrocis medinalis": {"system": "Cnaphalocrocis medinalis", "test": "Insecticidal activity, spray on pre-infested radish plants: Cnaphalocrocis medinalis", "details": "144 h, read-out: fatality rate on Cnaphalocrocis medinalis", "protocol": "as §1, §2"}, "[1]": {"system": "Frankliniella occidentalis", "test": "Insecticidal activity, spray on pre-infested radish plants: Frankliniella occidentalis", "details": "for Fatality rate on Frankliniella occidentalis (%): Table 3; for pest or weed control at 1 ppm / pest or weed control at 10 ppm / pest or weed control at 25 ppm: Frankliniella occidentalis, 144 h, read-out: fatality rate on Frankliniella occidentalis", "protocol": "as §1\nThe test method was as follows: the test was repeated for three times, and after spraying the formulated test compound, each test unit was allowed to dry for 1 hour, and then a black mesh cover was placed at the top. The test units were kept in a growth chamber at 25° C. and 70% relative humidity for 6 days. The mortality (fatality rate) of the insects was then visually assessed for each test unit, and the fatality rate was calculated as follows:\n[formula] (1) Test Results for the Control of Frankliniella occidentalis by Exemplary Example Compounds"}, "Plutella xylostella": {"system": "Plutella xylostella", "test": "Insecticidal activity, spray on pre-infested radish plants: Plutella xylostella", "details": "for Fatality rate on Plutella xylostella (%): Table 3; for pest or weed control at 0.1 ppm / pest or weed control at 1 ppm / pest or weed control at 10 ppm: Plutella xylostella, 144 h, read-out: fatality rate on Plutella xylostella", "protocol": "as §1, §2"}, "Pieris rapae": {"system": "Pieris rapae", "test": "Insecticidal activity, spray on pre-infested radish plants: Pieris rapae", "details": "144 h, read-out: fatality rate on Pieris rapae", "protocol": "as §1, §2"}}, "note": "Where two headings read alike, the source gives them in different places.", "data": [{"smiles": "Cc1cc(C2=NOC(c3cc(F)c(F)c(F)c3)(C(F)(F)F)C2)ccc1C(=O)NCc1ncc(C(F)(F)F)cc1Cl", "note": "(stereo not drawn) [Compound 10, N-((3-chloro-5-(trifluoromethyl)pyridin-2-yl)methyl)-2-methyl-4-(5-(trifluoromethyl)-5-(3,4,5-trifluorophenyl)-4,5-dihydroisoxazol-3-yl)benzamide]", "values": [{"measurement": "Fatality rate on Mythimna separata (%)", "setting": "Mythimna separata; 0.1 ppm", "value": 85, "unit": "%"}, {"measurement": "Fatality rate on Mythimna separata (%)", "setting": "Mythimna separata; 1 ppm", "value": 100, "unit": "%"}, {"measurement": "Fatality rate on Mythimna separata (%)", "setting": "Mythimna separata; 10 ppm", "value": 100, "unit": "%"}, {"measurement": "pest or weed control at 0.1 ppm", "setting": "Mythimna separata; dose 0.1 ppm, spray, 6 days", "value": "> 80", "unit": "%"}, {"measurement": "pest or weed control at 1 ppm", "setting": "Mythimna separata; dose 1 ppm, spray, 6 days", "value": "> 80", "unit": "%"}, {"measurement": "pest or weed control at 10 ppm", "setting": "Mythimna separata; dose 10 ppm, spray, 6 days", "value": "> 80", "unit": "%"}, {"measurement": "Fatality rate on Chilo suppressalis (%)", "setting": "Chilo suppressalis; 0.1 ppm", "value": 85, "unit": "%"}, {"measurement": "Fatality rate on Chilo suppressalis (%)", "setting": "Chilo suppressalis; 1 ppm", "value": 100, "unit": "%"}, {"measurement": "Fatality rate on Chilo suppressalis (%)", "setting": "Chilo suppressalis; 10 ppm", "value": 100, "unit": "%"}, {"measurement": "pest or weed control at 0.1 ppm", "setting": "Chilo suppressalis; dose 0.1 ppm, spray, 6 days", "value": "> 80", "unit": "%"}, {"measurement": "pest or weed control at 1 ppm", "setting": "Chilo suppressalis; dose 1 ppm, spray, 6 days", "value": "> 80", "unit": "%"}, {"measurement": "pest or weed control at 10 ppm", "setting": "Chilo suppressalis; dose 10 ppm, spray, 6 days", "value": "> 80", "unit": "%"}, {"measurement": "pest or weed control at 0.1 ppm", "setting": "Spodoptera litura; dose 0.1 ppm, spray, 6 days", "value": "> 80", "unit": "%"}, {"measurement": "pest or weed control at 1 ppm", "setting": "Spodoptera litura; dose 1 ppm, spray, 6 days", "value": "> 80", "unit": "%"}, {"measurement": "pest or weed control at 10 ppm", "setting": "Spodoptera litura; dose 10 ppm, spray, 6 days", "value": "> 80", "unit": "%"}, {"measurement": "pest or weed control at 1 ppm", "setting": "Tetranychus cinnabarinus; dose 1 ppm, immersion 5 seconds, checked after 24 hours", "value": "> 80", "unit": "%"}, {"measurement": "pest or weed control at 10 ppm", "setting": "Tetranychus cinnabarinus; dose 10 ppm, immersion 5 seconds, checked after 24 hours", "value": "> 80", "unit": "%"}, {"measurement": "pest or weed control at 25 ppm", "setting": "Tetranychus cinnabarinus; dose 25 ppm, immersion 5 seconds, checked after 24 hours", "value": "> 80", "unit": "%"}, {"measurement": "pest or weed control at 0.1 ppm", "setting": "Cnaphalocrocis medinalis; dose 0.1 ppm, spray, 6 days", "value": "> 80", "unit": "%"}, {"measurement": "pest or weed control at 1 ppm", "setting": "Cnaphalocrocis medinalis; dose 1 ppm, spray, 6 days", "value": "> 80", "unit": "%"}, {"measurement": "pest or weed control at 10 ppm", "setting": "Cnaphalocrocis medinalis; dose 10 ppm, spray, 6 days", "value": "> 80", "unit": "%"}, {"measurement": "Fatality rate on Frankliniella occidentalis (%)", "setting": "[1]; 1 ppm", "value": 85, "unit": "%"}, {"measurement": "Fatality rate on Frankliniella occidentalis (%)", "setting": "[1]; 10 ppm", "value": 100, "unit": "%"}, {"measurement": "Fatality rate on Frankliniella occidentalis (%)", "setting": "[1]; 25 ppm", "value": 100, "unit": "%"}, {"measurement": "pest or weed control at 1 ppm", "setting": "[1]; dose 1 ppm, spray, 6 days", "value": "> 80", "unit": "%"}, {"measurement": "pest or weed control at 10 ppm", "setting": "[1]; dose 10 ppm, spray, 6 days", "value": "> 80", "unit": "%"}, {"measurement": "pest or weed control at 25 ppm", "setting": "[1]; dose 25 ppm, spray, 6 days", "value": "> 80", "unit": "%"}, {"measurement": "Fatality rate on Plutella xylostella (%)", "setting": "Plutella xylostella; 0.1 ppm", "value": 90, "unit": "%"}, {"measurement": "Fatality rate on Plutella xylostella (%)", "setting": "Plutella xylostella; 1 ppm", "value": 100, "unit": "%"}, {"measurement": "Fatality rate on Plutella xylostella (%)", "setting": "Plutella xylostella; 10 ppm", "value": 100, "unit": "%"}, {"measurement": "pest or weed control at 0.1 ppm", "setting": "Plutella xylostella; dose 0.1 ppm, spray, 6 days", "value": "> 80", "unit": "%"}, {"measurement": "pest or weed control at 1 ppm", "setting": "Plutella xylostella; dose 1 ppm, spray, 6 days", "value": "> 80", "unit": "%"}, {"measurement": "pest or weed control at 10 ppm", "setting": "Plutella xylostella; dose 10 ppm, spray, 6 days", "value": "> 80", "unit": "%"}, {"measurement": "pest or weed control at 0.1 ppm", "setting": "Pieris rapae; dose 0.1 ppm, spray, 6 days", "value": "> 80", "unit": "%"}, {"measurement": "pest or weed control at 1 ppm", "setting": "Pieris rapae; dose 1 ppm, spray, 6 days", "value": "> 80", "unit": "%"}, {"measurement": "pest or weed control at 10 ppm", "setting": "Pieris rapae; dose 10 ppm, spray, 6 days", "value": "> 80", "unit": "%"}]}, {"smiles": "Cc1cc(C2=NOC(c3cc(Cl)c(F)c(Cl)c3)(C(F)(F)F)C2)ccc1C(=O)NCc1ncc(Cl)cc1Cl", "note": "(stereo not drawn) [Compound 11]", "values": [{"measurement": "pest or weed control at 0.1 ppm", "setting": "Mythimna separata", "value": "> 80", "unit": "%"}, {"measurement": "pest or weed control at 1 ppm", "setting": "Mythimna separata", "value": "> 80", "unit": "%"}, {"measurement": "pest or weed control at 10 ppm", "setting": "Mythimna separata", "value": "> 80", "unit": "%"}, {"measurement": "pest or weed control at 0.1 ppm", "setting": "Chilo suppressalis", "value": "> 80", "unit": "%"}, {"measurement": "pest or weed control at 1 ppm", "setting": "Chilo suppressalis", "value": "> 80", "unit": "%"}, {"measurement": "pest or weed control at 10 ppm", "setting": "Chilo suppressalis", "value": "> 80", "unit": "%"}, {"measurement": "pest or weed control at 0.1 ppm", "setting": "Spodoptera litura", "value": "> 80", "unit": "%"}, {"measurement": "pest or weed control at 1 ppm", "setting": "Spodoptera litura", "value": "> 80", "unit": "%"}, {"measurement": "pest or weed control at 10 ppm", "setting": "Spodoptera litura", "value": "> 80", "unit": "%"}, {"measurement": "pest or weed control at 1 ppm", "setting": "Tetranychus cinnabarinus; 24 h", "value": "> 80", "unit": "%"}, {"measurement": "pest or weed control at 10 ppm", "setting": "Tetranychus cinnabarinus; 24 h", "value": "> 80", "unit": "%"}, {"measurement": "pest or weed control at 25 ppm", "setting": "Tetranychus cinnabarinus; 24 h", "value": "> 80", "unit": "%"}, {"measurement": "pest or weed control at 0.1 ppm", "setting": "Cnaphalocrocis medinalis", "value": "> 80", "unit": "%"}, {"measurement": "pest or weed control at 1 ppm", "setting": "Cnaphalocrocis medinalis", "value": "> 80", "unit": "%"}, {"measurement": "pest or weed control at 10 ppm", "setting": "Cnaphalocrocis medinalis", "value": "> 80", "unit": "%"}, {"measurement": "pest or weed control at 1 ppm", "setting": "[1]", "value": "> 80", "unit": "%"}, {"measurement": "pest or weed control at 10 ppm", "setting": "[1]", "value": "> 80", "unit": "%"}, {"measurement": "pest or weed control at 25 ppm", "setting": "[1]", "value": "> 80", "unit": "%"}, {"measurement": "pest or weed control at 0.1 ppm", "setting": "Plutella xylostella", "value": "> 80", "unit": "%"}, {"measurement": "pest or weed control at 1 ppm", "setting": "Plutella xylostella", "value": "> 80", "unit": "%"}, {"measurement": "pest or weed control at 10 ppm", "setting": "Plutella xylostella", "value": "> 80", "unit": "%"}, {"measurement": "pest or weed control at 0.1 ppm", "setting": "Pieris rapae", "value": "> 80", "unit": "%"}, {"measurement": "pest or weed control at 1 ppm", "setting": "Pieris rapae", "value": "> 80", "unit": "%"}, {"measurement": "pest or weed control at 10 ppm", "setting": "Pieris rapae", "value": "> 80", "unit": "%"}]}]}
